Reference: the kinase profiling compilation of Christmann-Franck et al. (2016)

Key:
Assay in all cases: radiometric filter-binding kinase assay, Kinase HotSpot
Conditions in all cases: compound 0.5 µM; ATP 10 µM
ACVRL1 (human) = ACVRL1 (human) (UniProt P37023)
CAMK2G (human) = CAMK2G (human) (UniProt Q13555)
CDC42BPB (human) = CDC42BPB (human) (UniProt Q9Y5S2)
CDK2 CCNE1 (human) = CDK2 CCNE1 (human) (UniProt P24941+P24864)
CDK6 CCND3 (human) = CDK6 CCND3 (human) (UniProt P30281+Q00534)
CDK9 CCNT1 (human) = CDK9 CCNT1 (human) (UniProt P50750+O60563)
CLK1 (human) = CLK1 (human) (UniProt P49759)
CLK3 (human) = CLK3 (human) (UniProt P49761)
CLK4 (human) = CLK4 (human) (UniProt Q9HAZ1)
CSK (human) = CSK (human) (UniProt P41240)
CSNK1A1 (human) = CSNK1A1 (human) (UniProt P48729)
CSNK2A1 (human) = CSNK2A1 (human) (UniProt P68400)
DAPK2 (human) = DAPK2 (human) (UniProt Q9UIK4)
DAPK3 (human) = DAPK3 (human) (UniProt O43293)
Sequence of DAPK3 (human) (O43293 whole entry, looked up): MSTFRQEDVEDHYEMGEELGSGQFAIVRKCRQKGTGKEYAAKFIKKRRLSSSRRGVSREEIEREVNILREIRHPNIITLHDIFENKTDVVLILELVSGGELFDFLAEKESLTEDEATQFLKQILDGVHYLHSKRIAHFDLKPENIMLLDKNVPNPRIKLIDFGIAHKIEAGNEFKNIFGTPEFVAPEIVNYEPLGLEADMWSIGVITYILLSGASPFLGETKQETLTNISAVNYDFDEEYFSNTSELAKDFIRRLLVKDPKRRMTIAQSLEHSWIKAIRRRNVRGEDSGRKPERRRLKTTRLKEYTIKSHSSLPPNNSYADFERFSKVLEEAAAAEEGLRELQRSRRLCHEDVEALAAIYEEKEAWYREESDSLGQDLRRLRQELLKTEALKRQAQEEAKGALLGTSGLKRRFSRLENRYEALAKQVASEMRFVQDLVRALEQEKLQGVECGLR

DYRK4 (human) = DYRK4 (human) (UniProt Q9NR20)
Sequence of DYRK4 (human) (Q9NR20 whole entry, looked up): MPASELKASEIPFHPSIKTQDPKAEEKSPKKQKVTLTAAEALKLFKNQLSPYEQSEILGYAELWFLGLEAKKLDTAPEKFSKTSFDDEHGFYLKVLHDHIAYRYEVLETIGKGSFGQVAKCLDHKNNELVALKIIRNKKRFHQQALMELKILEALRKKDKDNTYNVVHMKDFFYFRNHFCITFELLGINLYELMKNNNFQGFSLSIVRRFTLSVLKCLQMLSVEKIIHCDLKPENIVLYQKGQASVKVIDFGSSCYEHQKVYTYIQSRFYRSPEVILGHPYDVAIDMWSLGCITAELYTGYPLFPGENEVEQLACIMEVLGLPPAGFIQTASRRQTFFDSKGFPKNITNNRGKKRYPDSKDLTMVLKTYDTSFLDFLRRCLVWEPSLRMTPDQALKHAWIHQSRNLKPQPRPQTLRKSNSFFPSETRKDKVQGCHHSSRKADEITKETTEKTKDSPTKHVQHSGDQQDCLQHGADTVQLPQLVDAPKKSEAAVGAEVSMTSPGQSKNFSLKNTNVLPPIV

EPHA7 (human) = EPHA7 (human) (UniProt Q15375)
Sequence of EPHA7 (human) (Q15375 whole entry, looked up): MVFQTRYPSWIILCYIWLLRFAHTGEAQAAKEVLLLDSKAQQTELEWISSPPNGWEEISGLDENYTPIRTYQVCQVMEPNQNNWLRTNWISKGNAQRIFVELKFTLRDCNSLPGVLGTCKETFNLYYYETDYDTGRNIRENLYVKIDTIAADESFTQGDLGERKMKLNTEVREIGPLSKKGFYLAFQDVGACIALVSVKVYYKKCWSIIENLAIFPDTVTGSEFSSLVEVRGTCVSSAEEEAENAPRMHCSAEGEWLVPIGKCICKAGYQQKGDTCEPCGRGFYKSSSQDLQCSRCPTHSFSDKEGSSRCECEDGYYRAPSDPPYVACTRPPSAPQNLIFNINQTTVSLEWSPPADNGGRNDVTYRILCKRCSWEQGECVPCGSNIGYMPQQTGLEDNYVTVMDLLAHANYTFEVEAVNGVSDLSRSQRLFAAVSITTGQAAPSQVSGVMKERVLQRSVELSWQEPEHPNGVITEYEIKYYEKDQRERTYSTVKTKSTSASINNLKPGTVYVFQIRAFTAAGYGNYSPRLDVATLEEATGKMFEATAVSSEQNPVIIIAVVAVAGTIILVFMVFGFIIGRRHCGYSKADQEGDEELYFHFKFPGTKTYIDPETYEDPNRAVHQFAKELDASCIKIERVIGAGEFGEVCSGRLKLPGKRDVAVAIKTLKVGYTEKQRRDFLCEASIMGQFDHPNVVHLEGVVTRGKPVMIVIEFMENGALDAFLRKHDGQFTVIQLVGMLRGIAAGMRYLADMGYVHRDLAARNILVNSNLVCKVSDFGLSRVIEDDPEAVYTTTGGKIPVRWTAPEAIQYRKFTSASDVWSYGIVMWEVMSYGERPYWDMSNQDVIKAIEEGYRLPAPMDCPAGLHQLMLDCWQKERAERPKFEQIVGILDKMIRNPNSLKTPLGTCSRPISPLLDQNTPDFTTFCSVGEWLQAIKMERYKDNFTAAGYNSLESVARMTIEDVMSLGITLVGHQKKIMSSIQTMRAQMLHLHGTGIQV

EPHB4 (human) = EPHB4 (human) (UniProt P54760)
ERBB4 (human) = ERBB4 (human) (UniProt Q15303)
GRK7 (human) = GRK7 (human) (UniProt Q8WTQ7)
GSK3B (human) = GSK3B (human) (UniProt P49841)
JAK2 JH1 JH2 (human) = JAK2 JH1 JH2 (human) (UniProt O60674)
LIMK1 (human) = LIMK1 (human) (UniProt P53667)
MAP3K5 (human) = MAP3K5 (human) (UniProt Q99683)
MAP3K9 (human) = MAP3K9 (human) (UniProt P80192)
MAP4K5 (human) = MAP4K5 (human) (UniProt Q9Y4K4)
Sequence of MAP4K5 (human) (Q9Y4K4 whole entry, looked up): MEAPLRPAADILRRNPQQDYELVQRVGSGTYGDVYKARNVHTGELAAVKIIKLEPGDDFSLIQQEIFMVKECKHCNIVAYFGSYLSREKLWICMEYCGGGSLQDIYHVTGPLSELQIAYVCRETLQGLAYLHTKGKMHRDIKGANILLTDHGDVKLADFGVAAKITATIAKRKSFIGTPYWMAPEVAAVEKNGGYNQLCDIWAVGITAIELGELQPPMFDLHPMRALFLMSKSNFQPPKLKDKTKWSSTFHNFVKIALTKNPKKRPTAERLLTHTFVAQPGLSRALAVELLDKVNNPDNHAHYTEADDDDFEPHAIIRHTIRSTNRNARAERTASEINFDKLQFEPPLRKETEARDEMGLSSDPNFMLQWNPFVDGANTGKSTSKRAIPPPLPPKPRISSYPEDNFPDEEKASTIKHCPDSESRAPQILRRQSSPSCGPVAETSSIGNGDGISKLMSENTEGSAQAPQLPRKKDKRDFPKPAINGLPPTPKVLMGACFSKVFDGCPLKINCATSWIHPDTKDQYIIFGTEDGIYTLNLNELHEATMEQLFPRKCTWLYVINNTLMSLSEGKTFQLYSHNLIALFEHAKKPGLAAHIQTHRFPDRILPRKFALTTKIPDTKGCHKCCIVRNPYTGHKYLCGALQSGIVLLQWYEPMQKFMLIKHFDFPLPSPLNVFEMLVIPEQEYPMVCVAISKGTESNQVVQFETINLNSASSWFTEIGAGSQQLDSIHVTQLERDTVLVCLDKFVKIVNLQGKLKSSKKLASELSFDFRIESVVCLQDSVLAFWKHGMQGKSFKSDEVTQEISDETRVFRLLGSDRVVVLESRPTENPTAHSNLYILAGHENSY

MAPK11 (human) = MAPK11 (human) (UniProt Q15759)
MERTK (human) = MERTK (human) (UniProt Q12866)
MINK1 (human) = MINK1 (human) (UniProt Q8N4C8)
MYLK2 (human) = MYLK2 (human) (UniProt Q9H1R3)
PNCK (human) = PNCK (human) (UniProt Q6P2M8)
PTK2B (human) = PTK2B (human) (UniProt Q14289)
ROCK1 (human) = ROCK1 (human) (UniProt Q13464)
ROS1 (human) = ROS1 (human) (UniProt P08922)
RPS6KA4 KD2 (human) = RPS6KA4 KD2 (human) (UniProt O75676)
RPS6KA5 KD2 (human) = RPS6KA5 KD2 (human) (UniProt O75582)
TAOK3 (human) = TAOK3 (human) (UniProt Q9H2K8)
Sequence of TAOK3 (human) (Q9H2K8 whole entry, looked up): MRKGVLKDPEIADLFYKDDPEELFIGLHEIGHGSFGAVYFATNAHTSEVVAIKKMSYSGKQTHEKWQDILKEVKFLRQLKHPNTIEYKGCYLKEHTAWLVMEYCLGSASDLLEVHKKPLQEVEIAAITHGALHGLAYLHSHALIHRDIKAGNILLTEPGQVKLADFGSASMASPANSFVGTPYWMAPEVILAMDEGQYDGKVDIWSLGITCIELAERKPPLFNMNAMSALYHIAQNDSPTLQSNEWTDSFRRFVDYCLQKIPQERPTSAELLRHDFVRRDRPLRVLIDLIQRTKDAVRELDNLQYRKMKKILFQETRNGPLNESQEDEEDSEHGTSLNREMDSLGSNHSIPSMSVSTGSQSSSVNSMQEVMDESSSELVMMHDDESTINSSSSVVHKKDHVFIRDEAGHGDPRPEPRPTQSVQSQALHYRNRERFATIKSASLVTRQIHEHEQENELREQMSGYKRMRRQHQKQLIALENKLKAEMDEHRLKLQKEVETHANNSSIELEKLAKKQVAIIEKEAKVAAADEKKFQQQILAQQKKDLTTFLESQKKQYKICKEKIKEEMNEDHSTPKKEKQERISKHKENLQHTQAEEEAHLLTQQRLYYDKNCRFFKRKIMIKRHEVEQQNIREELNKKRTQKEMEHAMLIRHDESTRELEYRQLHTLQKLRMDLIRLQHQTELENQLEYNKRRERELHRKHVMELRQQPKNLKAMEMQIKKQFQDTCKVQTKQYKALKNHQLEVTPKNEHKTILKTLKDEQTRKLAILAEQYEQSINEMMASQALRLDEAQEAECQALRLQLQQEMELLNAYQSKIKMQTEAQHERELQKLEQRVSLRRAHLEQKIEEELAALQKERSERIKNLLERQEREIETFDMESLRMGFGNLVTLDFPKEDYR

TBK1 (human) = TBK1 (human) (UniProt Q9UHD2)
Sequence of TBK1 (human) (Q9UHD2 whole entry, looked up): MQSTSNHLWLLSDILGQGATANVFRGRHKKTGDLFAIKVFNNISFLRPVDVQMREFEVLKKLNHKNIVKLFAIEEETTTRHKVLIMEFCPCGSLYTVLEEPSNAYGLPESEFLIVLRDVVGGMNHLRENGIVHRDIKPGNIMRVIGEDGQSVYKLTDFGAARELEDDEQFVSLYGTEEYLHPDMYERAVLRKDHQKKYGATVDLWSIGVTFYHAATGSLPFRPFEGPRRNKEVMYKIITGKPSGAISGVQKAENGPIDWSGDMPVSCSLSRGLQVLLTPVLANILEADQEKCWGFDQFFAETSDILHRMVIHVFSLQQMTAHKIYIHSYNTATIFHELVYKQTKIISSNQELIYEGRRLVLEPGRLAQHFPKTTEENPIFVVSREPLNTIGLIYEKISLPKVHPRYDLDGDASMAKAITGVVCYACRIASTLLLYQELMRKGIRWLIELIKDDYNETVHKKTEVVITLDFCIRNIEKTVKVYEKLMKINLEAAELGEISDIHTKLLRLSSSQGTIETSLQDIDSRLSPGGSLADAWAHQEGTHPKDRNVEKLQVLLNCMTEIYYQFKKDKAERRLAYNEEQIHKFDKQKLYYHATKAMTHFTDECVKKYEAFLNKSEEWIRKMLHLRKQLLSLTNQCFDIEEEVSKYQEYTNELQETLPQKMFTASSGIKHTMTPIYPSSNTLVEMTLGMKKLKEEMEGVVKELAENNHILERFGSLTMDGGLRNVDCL

TEC (human) = TEC (human) (UniProt P42680)
ULK1 (human) = ULK1 (human) (UniProt O75385)
VRK1 (human) = VRK1 (human) (UniProt Q99986)
WNK3 (human) = WNK3 (human) (UniProt Q9BYP7)
BRSK1 (human) = BRSK1 (human) (UniProt Q8TDC3)

Sequence of CAMK2G (human) (Q13555 whole entry, looked up): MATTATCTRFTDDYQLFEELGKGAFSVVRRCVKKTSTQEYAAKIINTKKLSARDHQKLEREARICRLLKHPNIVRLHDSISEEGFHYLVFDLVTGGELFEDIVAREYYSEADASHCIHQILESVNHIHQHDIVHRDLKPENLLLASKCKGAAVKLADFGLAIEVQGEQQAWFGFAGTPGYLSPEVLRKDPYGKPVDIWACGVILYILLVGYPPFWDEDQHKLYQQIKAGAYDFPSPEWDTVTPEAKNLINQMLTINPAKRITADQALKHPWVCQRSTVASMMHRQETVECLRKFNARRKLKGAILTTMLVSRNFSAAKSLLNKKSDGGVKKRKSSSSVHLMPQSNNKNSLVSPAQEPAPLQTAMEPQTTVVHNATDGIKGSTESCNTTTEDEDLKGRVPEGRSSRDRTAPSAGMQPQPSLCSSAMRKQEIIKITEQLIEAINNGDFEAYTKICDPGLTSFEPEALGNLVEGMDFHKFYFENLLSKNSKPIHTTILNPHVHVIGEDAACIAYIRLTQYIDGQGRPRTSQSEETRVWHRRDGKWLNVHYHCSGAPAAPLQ

Cc1cc(Nc2nc(-c3ccccc3)nc3ccccc23)n[nH]1 was tested. Which residual activity (ACVRL1 (human)) did it give?
Its residual activity is 115%.

What about the residual activity (CAMK2G (human)) of the same compound?
The residual activity was 95.9%.

And the residual activity (CDC42BPB (human))?
Its residual activity is 87.1%.

And the residual activity (CDK2 CCNE1 (human))?
Its residual activity is 75.4%.

And the residual activity (CDK6 CCND3 (human))?
Its residual activity is 58.4%.

What about the residual activity (CDK9 CCNT1 (human)) of the same compound?
The residual activity was 89.1%.

What about the residual activity (CLK1 (human)) of the same compound?
Its residual activity is 74%.

And the residual activity (CLK3 (human))?
Its residual activity is 33.8%.

And the residual activity (CLK4 (human))?
The residual activity was 34.3%.

And the residual activity (CSK (human))?
The residual activity was 98.4%.

And the residual activity (CSNK1A1 (human))?
The residual activity was 94.6%.

And the residual activity (CSNK2A1 (human))?
The residual activity was 27%.

And the residual activity (DAPK2 (human))?
The residual activity was 89.5%.

And the residual activity (DAPK3 (human))?
Its residual activity is 57.5%.

What about the residual activity (DYRK4 (human)) of the same compound?
The residual activity was 103%.

What about the residual activity (EPHA7 (human)) of the same compound?
Its residual activity is 72.5%.

What about the residual activity (EPHB4 (human)) of the same compound?
The residual activity was 91.1%.

What about the residual activity (ERBB4 (human)) of the same compound?
Its residual activity is 92%.

And the residual activity (GRK7 (human))?
The residual activity was 79.2%.

What about the residual activity (GSK3B (human)) of the same compound?
The residual activity was 27.9%.

What about the residual activity (JAK2 JH1 JH2 (human)) of the same compound?
The residual activity was 52.6%.

What about the residual activity (LIMK1 (human)) of the same compound?
The residual activity was 59.6%.

And the residual activity (MAP3K5 (human))?
The residual activity was 99.5%.

What about the residual activity (MAP3K9 (human)) of the same compound?
The residual activity was 14.8%.

And the residual activity (MAP4K5 (human))?
Its residual activity is 20.2%.

What about the residual activity (MAPK11 (human)) of the same compound?
The residual activity was 96.8%.

And the residual activity (MERTK (human))?
Its residual activity is 72.2%.

What about the residual activity (MINK1 (human)) of the same compound?
The residual activity was 35.6%.

What about the residual activity (MYLK2 (human)) of the same compound?
Its residual activity is 62.8%.

And the residual activity (PNCK (human))?
Its residual activity is 102%.

And the residual activity (PTK2B (human))?
Its residual activity is 61.4%.

And the residual activity (ROCK1 (human))?
The residual activity was 98.8%.

What about the residual activity (ROS1 (human)) of the same compound?
Its residual activity is 16.7%.

What about the residual activity (RPS6KA4 KD2 (human)) of the same compound?
The residual activity was 108%.

What about the residual activity (RPS6KA5 KD2 (human)) of the same compound?
Its residual activity is 70.5%.

What about the residual activity (TAOK3 (human)) of the same compound?
Its residual activity is 86.9%.

What about the residual activity (TBK1 (human)) of the same compound?
Its residual activity is 53.8%.

And the residual activity (TEC (human))?
The residual activity was 106%.

What about the residual activity (ULK1 (human)) of the same compound?
Its residual activity is 81.1%.

And the residual activity (VRK1 (human))?
The residual activity was 81%.

What about the residual activity (WNK3 (human)) of the same compound?
The residual activity was 74.9%.

How did the residual activity (ACVRL1 (human)) turn out when COc1cc2c(Nc3ccc(Br)cc3F)ncnc2cc1OCC1CCN(C)CC1 was run?
Its residual activity is 104%.

And the residual activity (BRSK1 (human))?
The residual activity was 97.1%.

What about the residual activity (CAMK2G (human)) of the same compound?
Its residual activity is 112%.

What about the residual activity (CDC42BPB (human)) of the same compound?
Its residual activity is 98%.

What about the residual activity (CDK2 CCNE1 (human)) of the same compound?
The residual activity was 101%.

What about the residual activity (CLK1 (human)) of the same compound?
Its residual activity is 105%.

What about the residual activity (CLK3 (human)) of the same compound?
The residual activity was 100%.

And the residual activity (CLK4 (human))?
Its residual activity is 84.3%.

What about the residual activity (CSK (human)) of the same compound?
Its residual activity is 54.4%.

What about the residual activity (CSNK1A1 (human)) of the same compound?
The residual activity was 102%.

What about the residual activity (CSNK2A1 (human)) of the same compound?
Its residual activity is 112%.

What about the residual activity (DAPK2 (human)) of the same compound?
The residual activity was 93.3%.

And the residual activity (DAPK3 (human))?
Its residual activity is 90.3%.

What about the residual activity (DYRK4 (human)) of the same compound?
Its residual activity is 102%.

What about the residual activity (EPHA7 (human)) of the same compound?
The residual activity was 31.8%.

And the residual activity (EPHB4 (human))?
The residual activity was 13%.

And the residual activity (ERBB4 (human))?
Its residual activity is 45.6%.

And the residual activity (GRK7 (human))?
Its residual activity is 96.4%.

What about the residual activity (GSK3B (human)) of the same compound?
The residual activity was 101%.

What about the residual activity (JAK2 JH1 JH2 (human)) of the same compound?
Its residual activity is 102%.

What about the residual activity (LIMK1 (human)) of the same compound?
Its residual activity is 88.1%.

What about the residual activity (MAP3K5 (human)) of the same compound?
The residual activity was 102%.

What about the residual activity (MAP3K9 (human)) of the same compound?
The residual activity was 96.1%.

What about the residual activity (MAP4K5 (human)) of the same compound?
Its residual activity is 37.1%.

And the residual activity (MAPK11 (human))?
Its residual activity is 97.1%.

What about the residual activity (MERTK (human)) of the same compound?
Its residual activity is 47.9%.

What about the residual activity (MINK1 (human)) of the same compound?
The residual activity was 81.5%.

What about the residual activity (MYLK2 (human)) of the same compound?
Its residual activity is 97.1%.

And the residual activity (PNCK (human))?
Its residual activity is 99.5%.

And the residual activity (PTK2B (human))?
Its residual activity is 99.5%.

And the residual activity (ROCK1 (human))?
Its residual activity is 99.4%.

And the residual activity (ROS1 (human))?
The residual activity was 76.5%.

And the residual activity (RPS6KA4 KD2 (human))?
The residual activity was 110%.

And the residual activity (RPS6KA5 KD2 (human))?
The residual activity was 101%.

And the residual activity (TAOK3 (human))?
The residual activity was 98.4%.

And the residual activity (TBK1 (human))?
The residual activity was 99.9%.

And the residual activity (TEC (human))?
Its residual activity is 91.6%.

What about the residual activity (ULK1 (human)) of the same compound?
The residual activity was 95.7%.

And the residual activity (VRK1 (human))?
Its residual activity is 98.9%.

What about the residual activity (WNK3 (human)) of the same compound?
The residual activity was 98%.

O=C(c1ccccc1)c1ccc(N2CCOCC2)cc1O was tested. Which residual activity (ACVRL1 (human)) did it give?
Its residual activity is 105%.

And the residual activity (BRSK1 (human))?
The residual activity was 103%.

What about the residual activity (CAMK2G (human)) of the same compound?
The residual activity was 94%.

What about the residual activity (CDC42BPB (human)) of the same compound?
Its residual activity is 90.9%.

What about the residual activity (CDK2 CCNE1 (human)) of the same compound?
Its residual activity is 99.6%.

And the residual activity (CDK6 CCND3 (human))?
Its residual activity is 97.7%.

And the residual activity (CDK9 CCNT1 (human))?
Its residual activity is 97.9%.

What about the residual activity (CLK1 (human)) of the same compound?
Its residual activity is 108%.

What about the residual activity (CLK3 (human)) of the same compound?
Its residual activity is 90.2%.

And the residual activity (CLK4 (human))?
Its residual activity is 101%.

And the residual activity (CSK (human))?
The residual activity was 101%.

And the residual activity (CSNK1A1 (human))?
Its residual activity is 110%.

What about the residual activity (CSNK2A1 (human)) of the same compound?
The residual activity was 91.1%.

What about the residual activity (DAPK2 (human)) of the same compound?
The residual activity was 102%.

And the residual activity (DAPK3 (human))?
The residual activity was 100%.

And the residual activity (DYRK4 (human))?
The residual activity was 94.9%.

What about the residual activity (EPHA7 (human)) of the same compound?
The residual activity was 98.4%.

And the residual activity (ERBB4 (human))?
Its residual activity is 102%.

What about the residual activity (GRK7 (human)) of the same compound?
Its residual activity is 99.6%.

And the residual activity (GSK3B (human))?
The residual activity was 118%.

And the residual activity (JAK2 JH1 JH2 (human))?
The residual activity was 94.1%.

And the residual activity (LIMK1 (human))?
Its residual activity is 83.9%.

And the residual activity (MAP3K5 (human))?
The residual activity was 97.8%.

What about the residual activity (MAP3K9 (human)) of the same compound?
The residual activity was 112%.

What about the residual activity (MAP4K5 (human)) of the same compound?
Its residual activity is 100%.

What about the residual activity (MAPK11 (human)) of the same compound?
Its residual activity is 99.3%.

And the residual activity (MERTK (human))?
Its residual activity is 94.5%.

What about the residual activity (MINK1 (human)) of the same compound?
Its residual activity is 91.1%.

And the residual activity (MYLK2 (human))?
Its residual activity is 99.1%.

What about the residual activity (PNCK (human)) of the same compound?
Its residual activity is 101%.

What about the residual activity (PTK2B (human)) of the same compound?
Its residual activity is 102%.

And the residual activity (ROCK1 (human))?
Its residual activity is 93.4%.

What about the residual activity (ROS1 (human)) of the same compound?
Its residual activity is 96%.

What about the residual activity (RPS6KA4 KD2 (human)) of the same compound?
The residual activity was 105%.

What about the residual activity (RPS6KA5 KD2 (human)) of the same compound?
The residual activity was 102%.

And the residual activity (TAOK3 (human))?
The residual activity was 99%.

And the residual activity (TBK1 (human))?
Its residual activity is 100%.

And the residual activity (TEC (human))?
Its residual activity is 119%.

What about the residual activity (ULK1 (human)) of the same compound?
The residual activity was 98.9%.

And the residual activity (VRK1 (human))?
Its residual activity is 89.7%.

And the residual activity (WNK3 (human))?
Its residual activity is 104%.
